The values below come from US9187492B2, “Pyripyropene derivative having ACAT2 inhibiting activity and stable to metabolizing enzymes” (School Juridical Person Kitasato Institute, priority 2010, dated 2015).

By half-life is commonly meant how long it takes for the measured level to halve. The low end stands for fast loss, the high end for slow loss.

Where two headings read alike, the source gives them in different places.

The target in data set [1] is T1, ACAT2 (Mus musculus, UniProt O88908).
T1 construct: The resulting sediment was collected as a microsome fraction; from tissue; host or cells: mouse liver (hepatic microsome membrane fraction)
T1 sequence (O88908 1-525): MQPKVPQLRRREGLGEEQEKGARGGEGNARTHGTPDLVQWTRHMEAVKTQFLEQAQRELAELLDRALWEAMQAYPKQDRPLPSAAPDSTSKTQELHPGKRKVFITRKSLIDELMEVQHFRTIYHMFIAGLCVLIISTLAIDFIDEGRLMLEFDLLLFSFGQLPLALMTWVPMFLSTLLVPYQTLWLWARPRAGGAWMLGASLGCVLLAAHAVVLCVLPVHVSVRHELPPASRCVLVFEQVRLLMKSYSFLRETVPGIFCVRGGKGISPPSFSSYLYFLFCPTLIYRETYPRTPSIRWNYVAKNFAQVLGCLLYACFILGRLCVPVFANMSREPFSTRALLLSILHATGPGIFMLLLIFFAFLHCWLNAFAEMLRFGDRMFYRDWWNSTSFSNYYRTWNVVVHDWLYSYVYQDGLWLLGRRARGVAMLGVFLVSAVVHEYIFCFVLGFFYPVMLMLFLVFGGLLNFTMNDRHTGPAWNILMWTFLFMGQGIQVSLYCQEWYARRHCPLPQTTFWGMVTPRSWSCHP
Briefly: Measurement of ACAT2-inhibiting activity (murine hepatic microsome, [14C]cholesteryl oleate formation). In kind it is biochemical. How it is done: The enzyme source which was used was a membrane fraction derived from murine hepatic microsome. Mouse livers were homogenized in buffer solution A (50 mM Tris HCl solution (pH 7.8), 1 mM ethylene diamine tetraacetate, and 1 mM phenylmethanesulfonyl fluoride) using a Potter-type homogenizer (Tokyo-Riko). The homogenate was centrifuged at 12000×g, and the supernatant was subjected to ultracentrifugation at 100000×g. The resulting sediment was collected as a microsome fraction, and this fraction was adjusted so as to have a protein concentration of 5 mg/mL using buffer solution A.
As a control, 10 μL of methanol were used in place of the pyripyropene derivative.
The chloroform layer was evaporated to dryness and was used to spot a thin layer chromatography plate (silica gel plate, Merck, 0.5 mm thickness). Elution for separation was carried out using hexane/diethyl ether/acetic acid (70:30:1, v/v) as an eluant.
wherein the background is the radioactivity of a thin layer chromatography plate which was not spotted.

A short description of data set [2]: Stability against metabolizing enzymes in the liver (hepatic microsome). The settings on record: time until remaining amount reached 50%, 37° C.; for half-life at 6 μg/mL: female, Sprague-Dawley (SD), rat, liver microsomes, pH 7.4, Half-life; for Half-life: female SD rat hepatic microsome, 6 μg/mL, pH 7.4. (Liver microsomes are vesicles of endoplasmic reticulum, rich in cytochrome P450 enzymes.)

The mark [3] stands for this setting: murine hepatic microsome membrane fraction, 5 min at 37° C.; read-out: Inhibitory activity (concentration required for 50% inhibition of ACAT 2 = IC50).
Setting [4] is: relative to PRD 043; class symbols.

As to `COc1cccc(C(=O)O[C@H]2CC3C(C)(COC(C)=O)[C@@H](OC(C)=O)CC[C@]3(C)C3[C@@H](O)c4c(cc(-c5cccnc5)oc4=O)O[C@@]32C)c1` (stereo partly shown) [PRD043, reference compound], in data set [1] (read-out: Inhibitory activity (concentration required for 50% inhibition of ACAT 2 = IC50); murine hepatic microsome membrane fraction, 5 min at 37° C.), the IC50 is > 10 nM. Besides, the “Specific activity ((IC50 of the test compound)/(IC50 of PRD 043))” value (shortened to “Specific activity”) in data set [1] (relative to PRD 043; given as number) came to 1. In addition, in data set [2], the half-life at 6 μg/mL was ≥ 540 min and the Half-life is on record as >9 h.

As to `CC(=O)O[C@H]1CC[C@@]2(C)C(C[C@H](OC(C)=O)[C@@]3(C)Oc4cc(-c5cccnc5)oc(=O)c4[C@H](O)C23)C1(C)COC(=O)c1ccccc1` (stereo partly shown) [PRD177, 11-O-benzoyl-11-deacetylpyripyropene A], the IC50 in data set [1] (setting [3]) fell in the range of 1 to 10 nM. In data set [1] (setting [4]), the “Specific activity” value was “+++ (10<specific activity≦20)”. In data set [2], the half-life at 6 μg/mL was ≥ 540 min and the Half-life is recorded as >9 h.

As to `CCCCCC(=O)OCC1(C)C2C[C@H](OC(=O)c3ccc(C#N)cc3)[C@@]3(C)Oc4cc(-c5cccnc5)oc(=O)c4[C@H](O)C3[C@@]2(C)CC[C@@H]1OC(=O)CCCCC` (stereo partly shown) [PRD167, 7-O-p-cyanobenzoyl-1,11-O-dihexanoyl-1,7,11-trideacetylpyripyropene A], the IC50 in data set [1] (setting [3]) lay in the range of 0.5 to 1 nM. The “Specific activity” value in data set [1] (setting [4]) is listed as “+++ (10<specific activity≦20)”. Moreover, in data set [2], the half-life at 6 μg/mL is ≥ 540 min and the Half-life is >9 h.

Regarding `Cc1ccc([C@@H]2OCC3(C)C4C[C@H](OC(=O)c5ccc(F)cc5)[C@@]5(C)Oc6cc(-c7cccnc7)oc(=O)c6[C@H](O)C5[C@@]4(C)CC[C@@H]3O2)cc1` (stereo partly shown) [PRD156, 1,11-O-p-methylbenzylidene-7-O-p-fluorobenzoyl-1,7,11-trideacetylpyripyropene A], the IC50 in data set [1] (setting [3]) was < 0.5 nM. The “Specific activity” value in data set [1] (setting [4]) was “++++ (20<specific activity)”. Moreover, in data set [2], the half-life at 6 μg/mL is ≥ 540 min and the Half-life is >9 h.

Turning to `Cc1cccc([C@@H]2OCC3(C)C4C[C@H](OC(=O)c5ccc(F)cc5)[C@@]5(C)Oc6cc(-c7cccnc7)oc(=O)c6[C@H](O)C5[C@@]4(C)CC[C@@H]3O2)c1` (stereo partly shown) [PRD158, 1,11-O-m-methylbenzylidene-7-O-p-fluorobenzoyl-1,7,11-trideacetylpyripyropene A], in data set [1] (setting [3]), the IC50 was 1 to 10 nM. Further, in data set [1] (setting [4]), the “Specific activity” value is “+++ (10<specific activity≦20)”. In addition, in data set [2], the half-life at 6 μg/mL is ≥ 540 min and the Half-life was >9 h.

Take `COc1ccc(C(OC)O[C@H]2CC3C4(C)CO[C@@H](c5ccccc5)O[C@H]4CC[C@]3(C)C3[C@@H](O)c4c(cc(-c5cccnc5)oc4=O)O[C@@]32C)cc1` (stereo partly shown) [PRD073, 1,11-O-benzylidene-1,7,11-trideacetyl-7-O-(1-methoxy-1-p-methoxyphenyl)methylpyripyropene A]: the IC50 in data set [1] (setting [3]) lay within 0.5 to 1 nM. In addition, the “Specific activity” value in data set [1] (setting [4]) is recorded as “+++ (10<specific activity≦20)”. Further, in data set [2], the half-life at 6 μg/mL is ≥ 540 min and the Half-life is listed as >9 h.

For the compound `CC(=O)O[C@H]1CC[C@@]2(C)C(C[C@H](OC(=O)c3ccc(C#N)cc3)[C@@]3(C)Oc4cc(-c5cccnc5)oc(=O)c4[C@H](O)C23)C1(C)COC(=O)c1ccccc1` (stereo partly shown) [PRD143, 7-O-p-cyanobenzoyl-7,11-dideacetyl-11-O-benzoylpyripyropene A], the IC50 in data set [1] (setting [3]) was 0.5 to 1 nM. In data set [1] (setting [4]), the “Specific activity” value was “+++ (10<specific activity≦20)”. For the same compound, in data set [2], the half-life at 6 μg/mL was ≥ 540 min and the Half-life is >9 h.

With `CC(C)C(=O)OCC1(C)C2C[C@H](OC(=O)c3ccc([N+](=O)[O-])cc3)[C@@]3(C)Oc4cc(-c5cccnc5)oc(=O)c4[C@H](O)C3[C@@]2(C)CC[C@@H]1OC(=O)C(C)C` (stereo partly shown) [PRD079, 7-O-p-nitrobenzoyl-1,11-O-diisobutyryl-1,7,11-trideacetylpyripyropene A], the IC50 in data set [1] (setting [3]) lay in the range of 0.5 to 1 nM. Also, in data set [1] (setting [4]), the “Specific activity” value was “+++ (10<specific activity≦20)”. Also, in data set [2], the half-life at 6 μg/mL is ≥ 540 min and the Half-life was >9 h.

Consider `Cc1ccccc1[C@@H]1OCC2(C)C3C[C@H](OC(=O)c4ccc(C#N)cc4)[C@@]4(C)Oc5cc(-c6cccnc6)oc(=O)c5[C@H](O)C4[C@@]3(C)CC[C@@H]2O1` (stereo partly shown) [PRD125, 1,11-O-o-methylbenzylidene-7-O-p-cyanobenzoyl-1,7,11-trideacetylpyripyropene A], for which, in data set [1] (setting [3]), the IC50 was 0.5 to 1 nM. Further, the “Specific activity” value in data set [1] (setting [4]) is “+++ (10<specific activity≦20)”. For the same compound, in data set [2], the half-life at 6 μg/mL is ≥ 540 min and the Half-life is >9 h.

Regarding `CC(=O)OCC1(C)C2C[C@H](OC(=O)c3ccc(C#N)cc3)[C@@]3(C)Oc4cc(-c5cccnc5)oc(=O)c4[C@H](O)C3[C@@]2(C)CC[C@@H]1OC(=O)c1ccccc1` (stereo partly shown) [PRD121, 7-O-p-cyanobenzoyl-1,7-dideacetyl-1-O-benzoylpyripyropene A], in data set [1] (setting [3]), the IC50 was in the range of 0.5 to 1 nM. Further, in data set [1] (setting [4]), the “Specific activity” value is listed as “+++ (10<specific activity≦20)”. In addition, in data set [2], the half-life at 6 μg/mL was ≥ 540 min and the Half-life is recorded as >9 h.

Consider `CC(=O)O[C@H]1CC2C(C)(COC(=O)C(C)C)[C@@H](OC(=O)C(C)C)CC[C@]2(C)C2[C@@H](O)c3c(cc(-c4cccnc4)oc3=O)O[C@@]21C` (stereo partly shown) [PRD187, 1,11-O-diisobutyryl-1,11-dideacetylpyripyropene A], for which, in data set [1] (setting [3]), the IC50 lay in the range of 0.5 to 1 nM. For the same compound, the “Specific activity” value in data set [1] (setting [4]) is reported as “+++ (10<specific activity≦20)”. Besides, in data set [2], the half-life at 6 μg/mL was ≥ 540 min and the Half-life was >9 h.

For the compound `CC12CO[C@@H](c3ccccc3F)O[C@H]1CC[C@@]1(C)C2C[C@H](OC(=O)c2ccc(F)cc2)[C@@]2(C)Oc3cc(-c4cccnc4)oc(=O)c3[C@H](O)C12` (stereo partly shown) [PRD164, 1,11-O-o-fluorobenzylidene-7-O-p-fluorobenzoyl-1,7,11-trideacetylpyripyropene A], the IC50 in data set [1] (setting [3]) lay in the range of 0.5 to 1 nM. The “Specific activity” value in data set [1] (setting [4]) is “+++ (10<specific activity≦20)”. Also, in data set [2], the half-life at 6 μg/mL was ≥ 540 min and the Half-life is >9 h.

Consider `Cc1cccc(C2OCC3(C)C(CCC4(C)C3CC(OC(=O)c3ccc(C#N)cc3)C3(C)Oc5cc(-c6cccnc6)oc(=O)c5C(O)C43)O2)c1` (stereo not shown) [PRD157, 1,11-O-m-methylbenzylidene-7-O-p-cyanobenzoyl-1,7,11-trideacetylpyripyropene A], for which the IC50 in data set [1] (setting [3]) is < 0.5 nM. Besides, in data set [1] (setting [4]), the “Specific activity” value was “++++ (20<specific activity)”. Moreover, in data set [2], the half-life at 6 μg/mL was ≥ 540 min and the Half-life was >9 h.

For `CC12CO[C@@H](c3ccccc3F)O[C@H]1CC[C@@]1(C)C2C[C@H](OC(=O)c2ccc(C#N)cc2)[C@@]2(C)Oc3cc(-c4cccnc4)oc(=O)c3[C@H](O)C12` (stereo partly shown) [PRD163, 1,11-O-o-fluorobenzylidene-7-O-p-cyanobenzoyl-1,7,11-trideacetylpyripyropene A], the IC50 in data set [1] (setting [3]) is 0.5 to 1 nM. The “Specific activity” value in data set [1] (setting [4]) is on record as “+++ (10<specific activity≦20)”. Besides, in data set [2], the half-life at 6 μg/mL was ≥ 540 min and the Half-life is >9 h.

As to `CC(=O)O[C@H]1CC[C@@]2(C)C(C[C@H](OC(=O)c3ccc(C#N)cc3)[C@@]3(C)Oc4cc(-c5cccnc5)oc(=O)c4[C@H](O)C23)C1(C)C(=O)O` (stereo partly shown) [PRD069, 7-O-p-cyanobenzoyl-11-deacetoxymethyl-7-deacetyl-11-carboxy-pyripyropene A], the IC50 in data set [1] (setting [3]) is < 0.5 nM. For the same compound, in data set [1] (setting [4]), the “Specific activity” value is reported as “++++ (20<specific activity)”. In addition, in data set [2], the half-life at 6 μg/mL is ≥ 540 min and the Half-life is recorded as >9 h.

In the case of `CC1(COC(=O)c2ccccc2)C2C[C@H](OC(=O)c3ccc(C#N)cc3)[C@@]3(C)Oc4cc(-c5cccnc5)oc(=O)c4[C@H](O)C3[C@@]2(C)CC[C@@H]1OC(=O)c1ccccc1` (stereo partly shown) [PRD166, 7-O-p-cyanobenzoyl-1,11-O-dibenzoyl-1,7,11-trideacetylpyripyropene A], the IC50 in data set [1] (setting [3]) was 0.5 to 1 nM. In addition, the “Specific activity” value in data set [1] (setting [4]) is given as “+++ (10<specific activity≦20)”. For the same compound, in data set [2], the half-life at 6 μg/mL is ≥ 540 min and the Half-life was >9 h.
